Molecules are shown by their SMILES. Where only a bound is given, the exact number is not on record here.

In patent US20230339890A1, “AMINO ALCOHOL COMPOUNDS AND USES THEREOF” (Kineta, Inc., priority 2020, published 2023) one finds IC50 data, which are given here for 28 molecules.

For the test, the target named is Recombinant human CYP51A1 (lanosterol-14a-demethylase) (Homo sapiens (Human), UniProt Q16850). As to the kind of experiment: Inhibition of CYP51A1, fluorescent substrate BOMCC. The conditions noted are these: recombinant human CYP51A1 coexpressed with CYP reductase in bacterial membranes, 8-point concentration-response, read-out: CYP51 IC50. In kind it is biochemical. The source says:
Method: Recombinant human CYP51A1 (lanosterol-14a-demethylase) enzyme was coexpressed with CYP reductase in bacterial membranes and the fluorescent substrate BOMCC (a nonnatural substrate that causes increases in fluorescence upon CYP51A1-dependent demethylation) was used to obtain 8-point dose concentration-response curves for each compound.

Chain of Recombinant human CYP51A1 (lanosterol-14a-demethylase) (Q16850 whole entry): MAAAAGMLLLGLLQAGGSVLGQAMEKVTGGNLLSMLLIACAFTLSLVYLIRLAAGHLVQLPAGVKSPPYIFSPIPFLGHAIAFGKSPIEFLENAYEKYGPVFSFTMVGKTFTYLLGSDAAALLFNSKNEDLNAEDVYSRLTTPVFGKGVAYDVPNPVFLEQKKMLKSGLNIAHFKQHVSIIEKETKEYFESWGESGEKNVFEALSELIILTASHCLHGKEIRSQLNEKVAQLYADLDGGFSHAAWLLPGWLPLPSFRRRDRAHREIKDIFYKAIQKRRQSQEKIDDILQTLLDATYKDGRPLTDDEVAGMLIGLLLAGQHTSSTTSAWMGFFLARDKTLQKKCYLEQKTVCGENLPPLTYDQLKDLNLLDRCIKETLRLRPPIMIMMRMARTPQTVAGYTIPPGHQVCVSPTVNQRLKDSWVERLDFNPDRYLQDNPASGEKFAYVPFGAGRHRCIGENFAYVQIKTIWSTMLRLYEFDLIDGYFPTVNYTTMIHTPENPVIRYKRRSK

A word on the IC50: it is the concentration needed to halve the response being measured. Turning to `CC(C)N(C[C@@H](O)c1cccnc1)C(=O)Nc1ccc(Cl)c(Cl)c1` [compound 29, 3-(3,4-dichlorophenyl)-1-[(2S)-2-hydroxy-2-(3-pyridyl)ethyl]-1-isopropyl-urea], the IC50 is above 1 µM.

Take `CCCN(CC(O)c1cccnc1)C(=O)Cc1ccc(Cl)cc1F` (stereo not shown) [compound 31, 2-(4-chloro-2-fluoro-phenyl)-N-[2-hydroxy-2-(3-pyridyl)ethyl]-N-propyl-acetamide]: the IC50 was at most 0.1 µM.

As for `CCCN(CC(O)c1cccnn1)C(=O)Cc1ccc(C(F)(F)F)nc1` (stereo not shown) [compound 32, N-(2-hydroxy-2-pyridazin-3-yl-ethyl)-N-propyl-2-[6-(trifluoromethyl)-3-pyridyl]acetamide], the concentration for half-maximal inhibition (IC50) was in the range of 0.1 to 1 µM.

`NCCCCCN(CC(O)c1cccnc1)C(=O)Cc1ccc(Cl)c(Cl)c1` (stereo not shown) [compound 33, N-(5-aminopentyl)-2-(3,4-dichlorophenyl)-N-[2-hydroxy-2-(3-pyridyl)ethyl]acet amide]: the half-maximal inhibitory concentration (IC50) was above 1 µM.

In the case of `CCC(=O)N(CC1Cc2cc(Cl)c(Cl)cc2C1)C[C@@H](O)c1cccnc1` [compound 34, N-[(5,6-dichloroindan-2-yl)methyl]-N-[(2S)-2-hydroxy-2-(3-pyridyl)ethyl]propanamide], the half-maximal inhibitory concentration (IC50) was in the range of 0.1 to 1 µM.

For the molecule `CCCN(CC(O)c1cncc(Cl)c1)C(=O)Cc1ccc(Cl)c(Cl)c1` (stereo not shown) [compound 37, N-[2-(5-chloro-3-pyridyl)-2-hydroxy-ethyl]-2-(3,4-dichlorophenyl)-N-propyl-acetamide], the IC50 is above 1 µM.

In the case of `CCCN(C[C@@H](O)c1cccnc1)C(=O)Cc1ccc(C(F)(F)F)nn1` [compound 38, N-[(2S)-2-hydroxy-2-(3-pyridyl)ethyl]-N-propyl-2-[6-(trifluoromethyl)pyridazin-3-yl]acetamide], the IC50 was in the range of 0.1 to 1 µM.

For `CCCN(C[C@@H](O)c1cccnc1)C(=O)Cc1ccc(C#N)nc1` [compound 39, 2-(6-cyano-3-pyridyl)-N-[(2S)-2-hydroxy-2-(3-pyridyl)ethyl]-N-propyl-acetamide], the half-maximal inhibitory concentration (IC50) was above 1 µM.

Regarding `CCCN(C[C@@H](O)c1cccnc1)C(=O)Cc1ccc2ncsc2c1` [compound 40, 2-(1,3-benzothiazol-6-yl)-N-[(2S)-2-hydroxy-2-(3-pyridyl)ethyl]-N-propyl-acetamide], the IC50 fell in the range of 0.1 to 1 µM.

`CC(C)(O)CN(CC(O)c1cccnc1)C(=O)Cc1ccc(Cl)c(Cl)c1` (stereo not shown) [compound 43, 2-(3,4-dichlorophenyl)-N-(2-hydroxy-2-methylpropyl)-N-[2-hydroxy-2-(3-pyridyl)ethyl]acetamide]: the half-inhibitory concentration (IC50) was above 1 µM.

Consider `CCCN(C[C@@H](O)c1cccnc1)C(=O)Cc1cncc(Cl)c1` [compound 44, 2-(5-chloro-3-pyridyl)-N-[(2S)-2-hydroxy-2-(3-pyridyl)ethyl]-N-propyl-acetamide], for which the half-inhibitory concentration (IC50) is above 1 µM.

As for `CCCN(C[C@@H](O)c1cccnc1)C(=O)Cc1ccc(OC(F)(F)F)cn1` [compound 45, N-[(2S)-2-hydroxy-2-(3-pyridyl)ethyl]-N-propyl-2-[5-(trifluoromethoxy)-2-pyridyl]acetamide], the concentration for half-maximal inhibition (IC50) was at most 0.1 µM.

For the molecule `CCCN(CC(O)c1cncc(Br)c1)C(=O)Cc1ccc(C(F)(F)F)nc1` (stereo not shown) [compound 46, N-[2-(5-bromo-3-pyridyl)-2-hydroxyethyl]-N-propyl-2-[6-(trifluoromethyl)-3-pyridyl]acetamide], the IC50 is above 1 µM.

With `CCCN(C[C@@H](O)c1cccnc1)C(=O)Cc1ccc2scnc2c1` [compound 47, 2-(1,3-benzothiazol-5-yl)-N-[(2S)-2-hydroxy-2-(3-pyridyl)ethyl]-N-propyl-acetamide], the IC50 was 0.1 to 1 µM.

On to `CCCN(CC(O)c1cncc(C(C)=O)c1)C(=O)Cc1ccc(C(F)(F)F)nc1` (stereo not shown) [compound 48, N-[2-(5-acetyl-3-pyridyl)-2-hydroxy-ethyl]-N-propyl-2-[6-(trifluoromethyl)-3-pyridyl]acetamide], for which the half-inhibitory concentration (IC50) was above 1 µM.

On to `CCC(=O)N(CCc1ccc(C(F)(F)F)nc1)CC(O)c1cccnn1` (stereo not shown) [compound 49], for which the half-maximal inhibitory concentration (IC50) is above 1 µM.

Consider `CCCN(C[C@@H](O)c1cccnc1)C(=O)Cc1ccc(C(F)F)c(F)c1` [compound 50, 2-[4-(difluoromethyl)-3-fluoro-phenyl]-N-[(2S)-2-hydroxy-2-(3-pyridyl)ethyl]-N-propyl-acetamide], for which the half-maximal inhibitory concentration (IC50) is at most 0.1 µM.

Consider `COC(=O)N(CCc1ccc(C(F)(F)F)nc1)CC(O)c1cccnn1` (stereo not shown) [compound 51], for which the half-maximal inhibitory concentration (IC50) was above 1 µM.

Regarding `CCCN(CC(O)c1cccnn1)C(=O)Cc1ccc(C#N)c(Cl)c1` (stereo not shown) [compound 52, 2-(3-chloro-4-cyanophenyl)-N-(2-hydroxy-2-pyridazin-3-yl-ethyl)-N-propyl-acetamide], the 50% inhibitory concentration (IC50) fell in the range of 0.1 to 1 µM.

Turning to `CCCN(CC(O)c1cncc(C(C)(C)O)c1)C(=O)Cc1ccc(C(F)(F)F)nc1` (stereo not shown) [compound 55, N-[2-hydroxy-2-[5-(1-hydroxy-1-methyl-ethyl)-3-pyridyl]ethyl]-N-propyl-2-[6-(trifluoromethyl)-3-pyridyl]acetamide], the half-inhibitory concentration (IC50) was above 1 µM.

On to `CC(=O)N1CCC(CN(C[C@@H](O)c2cccnc2)C(=O)Cc2ccc(C(F)(F)F)nc2)CC1` [compound 57, N-[(1-acetyl-4-piperidyl)methyl]-N-[(2S)-2-hydroxy-2-(3-pyridyl)ethyl]-2-[6-(trifluoromethyl)-3-pyridyl]acetamide], for which the IC50 is above 1 µM.

For `CN1CCC(CN(C[C@@H](O)c2cccnc2)C(=O)Cc2ccc(C(F)(F)F)nc2)CC1` [compound 58, N-[(2S)-2-hydroxy-2-(3-pyridyl)ethyl]-N-[(1-methyl-4-piperidyl)methyl]-2-[6-(trifluoromethyl)-3-pyridyl]acetamide], the IC50 is above 1 µM.

As to `CCCN(C[C@@H](O)c1cccnc1)C(=O)Cc1cncc(C(F)(F)F)c1` [compound 59, N-[(2S)-2-hydroxy-2-(3-pyridyl)ethyl]-N-propyl-2-[5-(trifluoromethyl)-3-pyridyl]acetamide], the half-inhibitory concentration (IC50) was above 1 µM.

Take `O=C(Cc1ccc(C(F)(F)F)nc1)N(CC(O)c1cccnn1)C1CCC1` (stereo not shown) [compound 60, N-cyclobutyl-N-(2-hydroxy-2-pyridazin-3-yl-ethyl)-2-[6-(trifluoromethyl)-3-pyridyl]acetamide]: the IC50 fell in the range of 0.1 to 1 µM.

Take `CCCN(CC(O)c1cccnc1)C(=O)Cc1ccc(Cl)c(C)n1` (stereo not shown) [compound 63, 2-(5-chloro-6-methyl-2-pyridyl)-N-[2-hydroxy-2-(3-pyridyl)ethyl]-N-propyl-acetamide]: the IC50 is above 1 µM.

In the case of `O=C(Cc1ccc(C(F)(F)F)nc1)N(Cc1ccccc1)C[C@@H](O)c1cccnc1` [compound 64, (S)-N-benzyl-N-(2-hydroxy-2-(pyridin-3-yl)ethyl)-2-(6-(trifluoromethyl)pyridin-3-yl)acetamide], the IC50 was at most 0.1 µM.

As to `O=C(Cc1ccc(F)c(Cl)c1)N(CC1COC1)C[C@@H](O)c1cccnc1` [compound 65, 2-(3-chloro-4-fluoro-phenyl)-N-[(2S)-2-hydroxy-2-(3-pyridyl)ethyl]-N-(oxetan-3-ylmethyl)acetamide], the half-maximal inhibitory concentration (IC50) was above 1 µM.

Regarding `O=C(Cc1ccc(OC(F)(F)F)cn1)N(CC1COC1)C[C@@H](O)c1cccnc1` [compound 66, N-[(2S)-2-hydroxy-2-(3-pyridyl)ethyl]-N-(oxetan-3-ylmethyl)-2-[5-(trifluoromethoxy)-2-pyridyl]acetamide], the concentration for half-maximal inhibition (IC50) fell in the range of 0.1 to 1 µM.
